Read-outs that look alike come from different tables or passages of the source.
Key:
Experiment in all cases: Glasshouse assay for herbicidal activity, pre-/post-emergence (percentage phytotoxicity)
Format in all cases: in vivo
[1] = tested on: Alopecurus myosuroides (ALOMY); details: Rate 250 g/ha, 100%=total damage, 0%=no damage; for pest or weed control at 250 g/ha: Alopecurus myosuroides
Description: (§1) Seeds of a variety of monocotyledonous and dicotyledonous test plants are sown in standard soil in pots. The plants are cultivated for one day (for pre-emergence) or for about 12 days (for post-emergence) under controlled conditions in a glasshouse (warm climate species at 24/18° C., cool climate species at 20/16° C., both at day/night; 16 hours light; 65% humidity). The test plants are then grown on, in a glasshouse (greenhouse) under controlled conditions (warm climate species at 24/18° C., cool climate species at 20/16° C., both at day/night; 16 hours light; 65% humidity) and are watered twice daily. 15 days after application of the test herbicide (15DAA) (for post-emergence), and 20 days after application of the test herbicide (20DAA) (for pre-emergence), the test plants are evaluated visually, and an assessed percentage phytotoxicity score is given for each herbicidal application on each plant species (with 100%=total damage to plant; 0%=no damage to plant). The plant species tested are as follows: Alopecurus myosuroides (ALOMY), Avena fatua (AVEFA), Lolium perenne (LOLPE), Echinochloa crus-galli (ECHCG).

Avena fatua (AVEFA) = details: Rate 250 g/ha, 100%=total damage, 0%=no damage; for pest or weed control at 250 g/ha: Avena fatua
Description: as §1

[2] = tested on: Echinochloa crus-galli (ECHCG); details: Rate 250 g/ha, 100%=total damage, 0%=no damage; for pest or weed control at 250 g/ha: Echinochloa crus-galli
Description: as §1

Lolium perenne (LOLPE) = details: Rate 250 g/ha, 100%=total damage, 0%=no damage; for pest or weed control at 250 g/ha: Lolium perenne
Description: as §1

[3] = 360 h, post-emergence, visual assessment 15 DAA, read-out: Post-emergence herbicidal activity (percentage phytotoxicity), ALOMY POST
[4] = 480 h, pre-emergence, visual assessment 20 DAA, read-out: Pre-emergence herbicidal activity (percentage phytotoxicity), ALOMY PRE
[5] = post-emergence, 360 h, post-emergence, visual assessment 15 DAA, read-out: Post-emergence herbicidal activity (percentage phytotoxicity), AVEFA POST
[6] = pre-emergence, 480 h, pre-emergence, visual assessment 20 DAA, read-out: Pre-emergence herbicidal activity (percentage phytotoxicity), AVEFA PRE
[7] = post-emergence, 360 h, post-emergence, visual assessment 15 DAA, read-out: Post-emergence herbicidal activity (percentage phytotoxicity), ECHCG POST
[8] = pre-emergence, 480 h, pre-emergence, visual assessment 20 DAA, read-out: Pre-emergence herbicidal activity (percentage phytotoxicity), ECHCG PRE
[9] = post-emergence, 360 h, post-emergence, visual assessment 15 DAA, read-out: Post-emergence herbicidal activity (percentage phytotoxicity), LOLPE POST
[10] = pre-emergence, 480 h, pre-emergence, visual assessment 20 DAA, read-out: Pre-emergence herbicidal activity (percentage phytotoxicity), LOLPE PRE
[11] = post-emergence, visual assessment 15 DAA
[12] = pre-emergence, visual assessment 20 DAA

Row | Structure (SMILES) | pest or weed control at 250 g/ha [1, 3] [%] | pest or weed control at 250 g/ha [1, 4] [%] | pest or weed control at 250 g/ha (Avena fatua (AVEFA); [5]) [%] | pest or weed control at 250 g/ha (Avena fatua (AVEFA); [6]) [%] | pest or weed control at 250 g/ha [2, 7] [%] | pest or weed control at 250 g/ha [2, 8] [%] | pest or weed control at 250 g/ha (Lolium perenne (LOLPE); [9]) [%] | pest or weed control at 250 g/ha (Lolium perenne (LOLPE); [10]) [%] | Post-emergence herbicidal activity (percentage phytotoxicity), ALOMY POST [1, 11] [%] | Pre-emergence herbicidal activity (percentage phytotoxicity), ALOMY PRE [1, 12] [%] | Post-emergence herbicidal activity (percentage phytotoxicity), AVEFA POST (Avena fatua (AVEFA); [11]) [%] | Pre-emergence herbicidal activity (percentage phytotoxicity), AVEFA PRE (Avena fatua (AVEFA); [12]) [%] | Post-emergence herbicidal activity (percentage phytotoxicity), ECHCG POST [2, 11] [%] | Pre-emergence herbicidal activity (percentage phytotoxicity), ECHCG PRE [2, 12] [%] | Post-emergence herbicidal activity (percentage phytotoxicity), LOLPE POST (Lolium perenne (LOLPE); [11]) [%] | Pre-emergence herbicidal activity (percentage phytotoxicity), LOLPE PRE (Lolium perenne (LOLPE); [12]) [%]
1 | C=Cc1cc(C)cc(C)c1C1C(=O)CC(CCNC(=O)C2=NOC(C)(C)C2)C1=O (racemic) [Compound A122, N-[2-[3-(2,4-dimethyl-6-vinyl-phenyl)-2,4-dioxo-cyclopentyl]ethyl]-5,5-dimethyl-4H-isoxazole-3-carboxamide] | 90 | 0 | 90 | 0 | 90 | 0 | 80 | 0 | – | – | – | – | – | – | – | –
2 | CC#Cc1cc(C)c(C2C(=O)CC(CCNC(=O)Nc3ccccn3)C2=O)c(C)c1 (stereo not drawn) [Compound A92] | 90 | 70 | 100 | 30 | 100 | 80 | 100 | 70 | – | – | – | – | – | – | – | –
3 | Cc1cc(C)c(C2C(=O)CC(CCNC(=O)Nc3ccc(F)cn3)C2=O)c(C)c1.Cl (stereo not drawn) [Compound A93] | – | – | – | – | – | – | – | – | 90 | 90 | 90 | 70 | 100 | 90 | 70 | 90
4 | CNC(=O)NCCC1CC(=O)C(c2c(C)cc(C)cc2C)C1=O (stereo not drawn) [Compound A94, 1-[2-[2,4-dioxo-3-(2,4,6-trimethylphenyl)cyclopentyl]ethyl]-3-methyl-urea] | 60 | 80 | 90 | 60 | 90 | 70 | 80 | 100 | – | – | – | – | – | – | – | –
5 | Cc1cc(C)c(C2C(=O)CC(CCNC(=O)Nc3ccncn3)C2=O)c(C)c1 (stereo not drawn) [Compound A95] | 70 | 80 | 70 | 20 | 70 | 70 | 60 | 70 | – | – | – | – | – | – | – | –
6 | Cc1cc(C)c(C2C(=O)CC(CCNc3ccc([N+](=O)[O-])cn3)C2=O)c(C)c1 (stereo not drawn) [Compound A96] | 90 | 80 | 100 | 90 | 100 | 100 | 100 | 100 | – | – | – | – | – | – | – | –
7 | Cc1cc(C)c(C2C(=O)CC(CCNc3ncc(C(F)(F)F)cc3F)C2=O)c(C)c1 (stereo not drawn) [Compound A97] | 90 | 80 | 90 | 90 | 100 | 90 | 90 | 100 | – | – | – | – | – | – | – | –
8 | Cc1cc(-n2cc(Cl)cn2)cc(C)c1C1C(=O)CC(CCNc2ncc(C(F)(F)F)cc2F)C1=O (stereo not drawn) [Compound A98] | 90 | 40 | 100 | 70 | 100 | 90 | 90 | 90 | – | – | – | – | – | – | – | –
9 | Cc1cc(-n2cc(Cl)cn2)cc(C)c1C1C(=O)CC(CCNc2ccc([N+](=O)[O-])cn2)C1=O (stereo not drawn) [Compound A99] | 70 | 0 | 90 | 0 | 100 | 0 | 60 | 0 | – | – | – | – | – | – | – | –
10 | Cc1cc(-n2cc(Cl)cn2)cc(C)c1C1C(=O)CC(CCNc2ccc(C(F)(F)F)cn2)C1=O (stereo not drawn) [Compound A100] | 90 | 60 | 100 | 50 | 100 | 90 | 100 | 70 | – | – | – | – | – | – | – | –
11 | Cc1cc(C)c(C2C(=O)CC(CCN(C)C(=O)Nc3ccccn3)C2=O)c(C)c1 (stereo not drawn) [Compound A101, 1-[2-[2,4-dioxo-3-(2,4,6-trimethylphenyl)cyclopentyl]ethyl]-1-methyl-3-(2-pyridyl)urea] | 70 | 40 | 70 | 0 | 70 | 10 | 40 | 30 | – | – | – | – | – | – | – | –
12 | Cc1cc(C)c(C2C(=O)C[C@@H](CCNC(=O)C3=NOC(C)(C)C3)C2=O)c(C)c1 (stereo partly drawn) [Compound A102] | 100 | 100 | 100 | 90 | 100 | 100 | 100 | 100 | – | – | – | – | – | – | – | –
13 | Cc1cc(C)c(C2C(=O)C[C@H](CCNC(=O)C3=NOC(C)(C)C3)C2=O)c(C)c1 (stereo partly drawn) [Compound A103] | 80 | 80 | 80 | 50 | 70 | 60 | 70 | 80 | – | – | – | – | – | – | – | –
14 | Cc1cc(C)c(C2C(=O)CC(CCNc3ccc([N+](=O)[O-])cc3C(F)(F)F)C2=O)c(C)c1 (stereo not drawn) [Compound A104] | 90 | 60 | 80 | 70 | 70 | 90 | 90 | 80 | – | – | – | – | – | – | – | –
15 | Cc1cc(C)c(C2C(=O)CC(CCNc3ccc([N+](=O)[O-])cc3)C2=O)c(C)c1 (stereo not drawn) [Compound A105] | 90 | 20 | 80 | 20 | 90 | 10 | 80 | 20 | – | – | – | – | – | – | – | –
16 | Cc1cc(C)c(C2C(=O)CC(CCNc3ccc(C#N)cc3C(F)(F)F)C2=O)c(C)c1 (stereo not drawn) [Compound A106] | 90 | 70 | 90 | 40 | 90 | 90 | 90 | 60 | – | – | – | – | – | – | – | –
17 | Cc1cc(C)c(C2C(=O)CC(CCNc3ccc(C#N)cn3)C2=O)c(C)c1 (stereo not drawn) [Compound A107] | 100 | 90 | 100 | 90 | 100 | 100 | 100 | 100 | – | – | – | – | – | – | – | –
18 | CC#Cc1cc(C)c(C2C(=O)CC(CCNC(=O)C3=NOC(C)(C)C3)C2=O)c(C)c1 (stereo not drawn) [Compound A108] | 100 | 100 | 100 | 90 | 100 | 100 | 100 | 100 | – | – | – | – | – | – | – | –
